In publication PMC3901665, “Characterization of Glycolytic Enzymes - rAldolase and rEnolase of Leishmania donovani, Identified as Th1 Stimulatory Proteins, for Their Immunogenicity and Immunoprophylactic Efficacies against Experimental Visceral Leishmaniasis” (PLoS ONE, 2014) one finds Km data, which are given here for three compounds.

Holding throughout (assay type): biochemical, Leishmania donovani
Assay [1] deals with T1, rLdEno (L. donovani enolase).
T1 construct: gene ENO; full-length ORF (PCR product 1290 bp), N-terminal 6xHis, pET-28a, E. coli C41(DE3), Ni-NTA
As to the kind of experiment: spectrophotometric PEP formation at […] nm, Michaelis-Menten. The conditions noted are these: 20 mM Tris-HCl pH 7.5, 2 mM MgSO4, 75 mM KCl, 25°C; 0-10 mM 2PGA.

Assay [2] has as its system T2, rLdAld (L. donovani aldolase).
T2 construct: gene ALD; full-length ORF (PCR product 1125 bp), 6xHis tag, pET-28a, E. coli, purified on Ni-NTA
As to the kind of experiment: hydrazine assay at […] nm, Michaelis-Menten. To be noted: hydrazine sulfate as detection reagent; 0.1-7 mM substrate; pH and temperature not given.

The test system of assay [3] is T1, rLdEno (L. donovani enolase). Nature of the assay: spectrophotometric at […] nm, Michaelis-Menten. To be noted: 20 mM Tris-HCl pH 7.5, 2 mM MgSO4, 75 mM KCl, 25°C; 0-7.5 mM PEP; reverse reaction.

With `O=C(O)[C@@H](CO)OP(=O)(O)O` [2-phosphoglycerate], the Km in assay [1] worked out at 1540 µM. Take `O=P(O)(O)OC[C@H]1OC(O)(COP(=O)(O)O)[C@@H](O)[C@@H]1O` (stereo partly drawn) [D-Fru-1,6-P2]: the Km in assay [2] amounted to 2060 µM. On to `C=C(OP(=O)(O)O)C(=O)O` [Phosphoenol pyruvate], for which the Km in assay [3] was determined as 3370 µM.

One may read the Km as the concentration of substrate that gives half-maximal velocity.
